First: CC=CC(=O)c1c(CCC)n(Cc2ccccc2Cl)c2cc(C(N)=O)ccc12
Second: O=C(O)Cc1ccc(C(=O)c2ccc(Cl)cc2)n1Cc1ccccc1
The melting point of the first is higher: 186 °C for the first, 162 to 163 °C for the second.

First: C(#Cc1ccccn1)CCc1nc(-c2ccc3ccccc3c2)no1
Second: Cc1nc2c(N)nc3ccccc3c2n1OCCOc1ccccc1
The melting point of the first is lower: 76 to 78 °C for the first, 237 to 239 °C for the second.

Compared with `CC(C)(C)c1ccc(C(=O)NN=Cc2c(O)ccc3ccccc23)cc1`, `O=C(O)C(=O)c1ccc(C(=O)NCCOc2ccc3ccccc3c2)cc1` is lower in melting point: 259 to 261 °C for the first, 173 to 175 °C for the second.

Compared with `CCOC(=O)CC(=O)C(C)(C)Sc1ccccc1`, `CC(=O)OC(=Cc1ccccc1)c1ccc(OC(C)=O)c(OC(C)=O)c1[N+](=O)[O-]` is higher in melting point: 44 to 45 °C for the first, 119 to 121 °C for the second.

Compared with `CCCCCC(=O)CCCC(=O)O`, `CCCCCCCCCCN(O)C(=O)NCCCC(=O)OC` is higher in melting point: 54 to 55 °C for the first, 89 to 90 °C for the second.

Compared with `CCCc1nc2c(N)nc3cc(OCCN4CCCS4(=O)=O)ccc3c2s1`, `CCN(CC)CCOC(=O)CCc1cc(S(C)(=O)=O)cc(-c2nc(=O)c3ccc(Cl)cc3s2)n1` is higher in melting point: 127 to 130 °C for the first, 150 to 152 °C for the second.

Compared with `COc1cc(C(=O)O)ccc1S(=O)(=O)n1c(=O)n(C2CCCCC2)c2cc(OC3CCCC3)ccc21`, `COc1c(Nc2ncc(Cl)c(Nc3ccccc3S(=O)(=O)N(C)C)n2)ccc2c1CC(N1CCOCC1)CCC2` (stereo not given) is lower in melting point: 245 °C for the first, 92 to 104 °C for the second.

First: O=C1CC(/C=C/c2ccccc2)Nc2ccccc2N1Cc1ccccc1 (stereo not given)
Second: CC(Cc1c[nH]c2ccccc12)(NC(=O)OCC1c2ccccc2-c2ccccc21)C(=O)NC(CO)Cc1ccccc1 (stereo not given)
The melting point of the first is higher: 186 to 187 °C for the first, 89 to 93 °C for the second.

First: CON1C(=O)CC2(CCN(C(=O)c3cccnc3)CC2)C1=O
Second: CN1CCN(C(=O)c2ccc(Nc3cc(NC(=O)Nc4c(Cl)cc(Cl)cc4Cl)ncn3)cc2)CC1
The melting point of the first is higher: 199 to 201 °C for the first, 165 to 175 °C for the second.

First: CCCCCCCCCCCCCCOc1ccc(CC(=O)OC)cc1
Second: Cc1ccc(S(=O)(=O)Nc2c(CCCCCCC(=O)O)ccc3ccccc23)cc1
The melting point of the first is lower: 36 to 38 °C for the first, 128 to 133 °C for the second.

First: Cc1cccc(CC(Cc2cccc(C)c2)C(=O)O)c1
Second: CC(=O)OCCc1c(N)cc(OCc2ccccc2)c2ccccc12
The melting point of the first is higher: 86 to 88 °C for the first, 76 to 82 °C for the second.

First: OC(c1ccccc1)(c1ccncc1)c1ccc(F)cc1 (stereo not given)
Second: Cc1nc(NC(=O)c2ccccc2)sc1C(=O)NCc1ccc(F)cc1
The melting point of the first is lower: 189 to 192 °C for the first, 206 to 208 °C for the second.

First: CC(C)(C)NC(=O)NC(Cc1ccccc1)C(O)C(O)C(Cc1ccccc1)NC(=O)NC(C)(C)C (stereo not given)
Second: OCCNC(=S)NC(=Nc1cccc2ccccc12)c1ccccc1
The melting point of the first is higher: 193 to 196 °C for the first, 131 to 132 °C for the second.

Compared with `Cc1oc(-c2ccccc2)nc1CNCc1ccc(C[C@@H](C(=O)O)n2cccc2)cc1`, `CCOC(=O)C1=C(N)NC(c2ccccc2)=CC1c1cccc(Cl)c1` (stereo not given) is lower in melting point: 163 to 165 °C for the first, 161 °C for the second.

Compared with `COc1cc2c(cc1OC)N(C(C)=O)CC(N(C)C)C2` (stereo not given), `COc1ccc(-c2cc(=O)[nH]cn2)cc1OC` is higher in melting point: 145 to 147 °C for the first, 248 to 249 °C for the second.

First: Cc1cc(C)c(-c2cc3cnc(N)nc3nc2N)c(C)c1
Second: Nc1ncc2cc(-c3c(Cl)cccc3Cl)c(=O)n(Cc3cccc(Br)c3)c2n1
The melting point of the first is higher: 276 to 282 °C for the first, 215 °C for the second.

First: COc1cc(Cl)cc2nc(S(=O)(=O)Nc3c(Cl)cccc3Cl)nn12
Second: COC(=O)c1nn(-c2cccc(C(F)(F)F)c2)c(=O)cc1OC
The melting point of the first is higher: 232 to 234 °C for the first, 124 to 125 °C for the second.

Compared with `O=c1[nH]c2ncc(-c3ccc(O)cc3)nc2n1C1CCOCC1`, `Oc1ccc(-c2noc(C3CC3)c2-c2ccccc2)cc1` is lower in melting point: 382 to 383 °C for the first, 197 to 200 °C for the second.

First: Cc1nccn1N=Cc1cc(C(C)(C)C)c(O)c(C(C)(C)C)c1
Second: Cc1cccc(C)c1C(=O)n1cc(F)c(N=CN(C)C)nc1=O
The melting point of the first is higher: 206 to 207 °C for the first, 120 to 150 °C for the second.

First: NNC(=O)c1cc2c(s1)-c1ccccc1OC2c1ccccc1 (stereo not given)
Second: Clc1ccc2c(c1)N=C(NCc1cccnc1)c1ccccc1S2
The melting point of the first is higher: 238 to 239 °C for the first, 152 to 153 °C for the second.

First: Cc1[nH]c(=S)n(Nc2cccc([N+](=O)[O-])c2)c1-c1ccccc1
Second: CC1CC(=O)NN=C1c1ccc(Nc2ccccc2)nc1 (stereo not given)
The melting point of the first is higher: 214 °C for the first, 202 to 204 °C for the second.

First: O=C(O)c1cc(Cl)ccc1S
Second: CSc1c(Cl)ccc(C(=O)O)c1F
The melting point of the first is higher: 192 to 194 °C for the first, 183 to 185 °C for the second.

First: Cc1cc(-n2cnnc2)ccc1N
Second: Cc1cc(=O)n2nc(C)n(N)c2n1
The melting point of the first is lower: 152 to 154 °C for the first, 287 to 289 °C for the second.

First: CN1CC(OC(c2ccccc2)c2ccccc2)C1
Second: Fc1ccc(OCCCN2CCC(CNc3nc4ccccc4s3)CC2)c(OCc2ccccc2)c1
The melting point of the first is lower: 44 to 48 °C for the first, 130 °C for the second.

First: Cn1c(=O)sc2ccc(Cl)cc21
Second: CCC1(CCCCCl)C(=O)Nc2ccc(Cl)cc21 (stereo not given)
The melting point of the first is lower: 106 to 108 °C for the first, 116 to 117 °C for the second.

Compared with `CCOC(=O)COc1ccc(Cn2c(-c3ccc(OC)cc3)c(C)c3cc(OCc4ccccc4)ccc32)cc1`, `O=Cc1cc(=O)c(OCc2ccccc2)c(C(=O)c2ccc(Cc3ccc(F)cc3)o2)o1` is lower in melting point: 90 to 96 °C for the first, 69 to 72 °C for the second.

Compared with `Cc1ncoc1C(C)(O)c1ccccc1C(F)(F)F` (stereo not given), `CCOC(=O)c1cc(CC)sc1Nc1c([N+](=O)[O-])cccc1C(F)(F)F` is lower in melting point: 108 to 109 °C for the first, 72 to 73 °C for the second.

First: CN(c1cccc2cc(C3=NCC(C(N)=O)S3)[nH]c12)S(=O)(=O)c1cccs1 (stereo not given)
Second: Cc1c(C(=O)CS(=O)Cc2ccc(Cl)cc2)sc2ccc(Cl)cc12 (stereo not given)
The melting point of the first is higher: 230 to 232 °C for the first, 168 to 170 °C for the second.

First: O=C(O)c1ccc(OCCCNc2ccc(NCc3ccc4c(c3)OCCO4)cc2)cc1
Second: CCc1ccc(CC(C)(C)NCC(O)c2cc(OCc3ccccc3)cc3c2OCC(=O)N3)cc1 (stereo not given)
The melting point of the first is higher: 246 to 247 °C for the first, 210 to 214 °C for the second.

First: CSc1ncc(Cc2ccc(C)nc2)c(=O)[nH]1
Second: CCCCc1cnc(-c2ccc(C#N)cc2)nc1
The melting point of the first is higher: 197 to 198 °C for the first, 60.9 to 61.8 °C for the second.

First: CCCCC[C@@H](CNC(=O)Nc1c(OC(C)C)c(C)nn1C(C)(C)C)c1cccc2c1OCO2
Second: CCCn1cc(Cc2ccc(C(=O)NS(=O)(=O)c3ccccc3C)cc2OC)c2cc(CCCC(=O)N(C)C)ccc21
The melting point of the first is higher: 98.5 to 99 °C for the first, 94 to 96 °C for the second.

First: C1=Cc2ccccc2NC1
Second: C1=Nc2ccccc2N2CCCc3cccc1c32
The melting point of the first is lower: 89 to 90 °C for the first, 118 to 120 °C for the second.

Compared with `CC(C)Oc1cc(N2CCC(C(F)(F)F)CC2=O)c(F)cc1Cl` (stereo not given), `CN(C)CCCCNC(=O)c1cnc2c(c1)N(Cc1cc(Cl)ccc1C(F)(F)F)CCN2` is higher in melting point: 98 to 102 °C for the first, 182 °C for the second.

First: C=CC(O)c1cc(OC)c2oc(-c3ccc(O)c(OC)c3)c(C)c2c1 (stereo not given)
Second: CCOC(=O)[C@H](Cc1ccc(-c2c(OC)cc(C=O)cc2OC)cc1)NC(=O)c1c(F)cccc1F
The melting point of the first is higher: 164 to 167 °C for the first, 114 to 116 °C for the second.

First: CC(=NO)C1=CCC2C3CCC4CC=CCC4(C)C3C(=O)CC12C (stereo not given)
Second: CC(=O)C1CCC2C3CCC4CC(OC(=O)CI)CCC4(C)C3C(OC(=O)CI)CC12C (stereo not given)
The melting point of the first is higher: 168 to 182 °C for the first, 112 to 113 °C for the second.

Compared with `CN1CC(=O)N(c2cc(Cl)nc(Cl)c2)C1=O`, `CCn1ncc2c(C(F)(F)F)cc(=O)[nH]c21` is higher in melting point: 134 °C for the first, 178 to 179 °C for the second.

Compared with `NS(=O)(=O)c1c(Cl)cccc1CN1CCOC1=O`, `Cc1ccc(S(=O)(=O)OCC2Cc3cccc(-c4ccccc4Cl)c3O2)cc1` (stereo not given) is lower in melting point: 200 to 201 °C for the first, 100 to 103 °C for the second.

First: CN1CCN(c2cccc3ccc(O)cc23)CC1
Second: CNC(=O)c1cccc(F)c1Nc1nc(Nc2ccc3c(c2)CCCC(=O)N3CCOC)ncc1Cl
The melting point of the first is lower: 112 °C for the first, 146 to 147 °C for the second.

First: O=C(Nc1ccc(O)c(C(=O)O)c1)c1ccc([N+](=O)[O-])cc1
Second: COC(=O)Cc1cc(C(=O)c2ccc(F)cc2)ccc1O
The melting point of the first is higher: 270 to 271 °C for the first, 173 °C for the second.

First: CC1(C)Cc2c(Cl)cccc2C1N=CNC#N (stereo not given)
Second: CN(C)C=C(C#N)C(=O)Nc1cc(F)ccc1F
The melting point of the first is lower: 173 to 175 °C for the first, 175 to 176 °C for the second.

First: C#Cc1ccc(-c2c(C)nnc(OC)c2-c2c(F)cc(OC)cc2F)cc1
Second: CCN(CC)Cc1nc2sc3c(c2c(-c2ccc(OC)c(OC)c2)c1Cl)CCN(Cc1ccccc1)C3
The melting point of the first is higher: 192 to 193 °C for the first, 150 to 151 °C for the second.

First: CNC(=O)c1cn(-c2cc3c(=O)n(NS(C)(=O)=O)c(=O)[nH]c3cc2C(F)(F)F)cn1
Second: Cc1oncc1C(=O)c1ccc(C(F)(F)F)cc1[N+](=O)[O-]
The melting point of the first is higher: 292 to 295 °C for the first, 85 to 86 °C for the second.

First: Cc1cc(C)c(C(=O)P(=S)(C(=O)c2c(C)cc(C)cc2C)c2ccccc2)c(C)c1
Second: O=C1c2ccccc2-c2c1c(-n1ccnc1)nc1ccc(Br)cc21
The melting point of the first is lower: 123 °C for the first, 283 to 285 °C for the second.

First: COC1(c2cc(F)cc(Sc3ccc(/C(C)=N/O)c(O)c3)c2)CCOCC1
Second: COc1ccnc(CS(=O)c2nc3cc4c(cc3[nH]2)OC(F)(F)C(F)(Cl)O4)c1 (stereo not given)
The melting point of the first is lower: 140 to 142 °C for the first, 179 to 181 °C for the second.

First: O=C(Nc1ccc(C[C@H](NS(=O)(=O)N2CCCCC2)C(=O)O)cc1)c1c(Cl)cncc1Cl
Second: CNCC(=O)N(C)Cc1ccc(CCn2cnc3cc(-c4ccc(Cl)cc4)sc3c2=O)cc1
The melting point of the first is higher: 208 °C for the first, 166 to 169 °C for the second.

First: CCc1sc2c(c1S(=O)(=O)c1ccc(OCCCN(C)C(C)c3ccc(OC)c(OC)c3)cc1)CN(Cc1ccccc1Cl)CC2 (stereo not given)
Second: CCOC(=O)N1Cc2ccccc2C(Oc2ccc(Cl)cc2)C1 (stereo not given)
The melting point of the first is higher: 110 °C for the first, 78.5 to 79.5 °C for the second.

Compared with `O=C(O)c1cc(Cl)cs1`, `CCCOC(=O)c1c(C)nsc1NC(=O)NC` is higher in melting point: 138 °C for the first, 191 °C for the second.

First: CCCC[C@@H](C)[C@@H](O)[C@H](NC)C(=O)O
Second: CCOC(=O)C1=C(C)NC(C(OCC)OCC)=C(C(=O)OCC)C1c1ccco1 (stereo not given)
The melting point of the first is higher: 248 to 249 °C for the first, 59 to 60 °C for the second.

First: CN(C)c1ccc(NC(=O)N(Cc2ccco2)C[C@H]2CC[C@H](CN(Cc3ccco3)C(=O)Nc3ccc(N(C)C)cc3)CC2)cc1
Second: CCOC(=O)c1ccc(OC(=O)c2ccc(C(=O)Oc3ccc(C(=O)OCC)cc3)cc2)cc1
The melting point of the first is lower: 129 to 132 °C for the first, 187 to 189 °C for the second.

First: Nc1ccccc1-c1nc(CCS(=O)(=O)CCO)no1
Second: NC(=O)CNC(=O)CN1CCCC1=O
The melting point of the first is lower: 118 to 119 °C for the first, 147 to 148 °C for the second.
